solubility (mole fraction) (in 1,4-dioxane, 273.15 K)	solubility (mole fraction) (in 1,4-dioxane, 278.15 K)	solubility (mole fraction) (in 1,4-dioxane, 283.15 K)	solubility (mole fraction) (in 1,4-dioxane, 288.15 K)	solubility (mole fraction) (in 1,4-dioxane, 293.15 K)	solubility (mole fraction) (in 1,4-dioxane, 298.15 K)	solubility (mole fraction) (in 1,4-dioxane, 303.15 K)	solubility (mole fraction) (in 1,4-dioxane, 308.15 K)	solubility (mole fraction) (in 1,4-dioxane, 313.15 K)	solubility (mole fraction) (in acetone, 273.15 K)	solubility (mole fraction) (in acetone, 278.15 K)	solubility (mole fraction) (in acetone, 283.15 K)	solubility (mole fraction) (in acetone, 288.15 K)	solubility (mole fraction) (in acetone, 293.15 K)	solubility (mole fraction) (in acetone, 298.15 K)	solubility (mole fraction) (in acetone, 303.15 K)	solubility (mole fraction) (in acetone, 308.15 K)	solubility (mole fraction) (in acetone, 313.15 K)	solubility (mole fraction) (in ethyl acetate, 273.15 K)	solubility (mole fraction) (in ethyl acetate, 278.15 K)	also measured	Structure (SMILES)
0.0192	0.021	0.0231	0.0254	0.0281	0.0309	0.034	0.0373	0.0413	0.00169	0.00183	0.00204	0.00225	0.00258	0.00281	0.00308	0.00349	0.00385	0.00545	0.00599	solubility (mole fraction) (in 1,4-dioxane, 318.15 K): 0.0462; solubility (mole fraction) (in acetone, 318.15 K): 0.00432; solubility (mole fraction) (in ethyl acetate, 283.15 K): 0.00692; solubility (mole fraction) (in ethyl acetate, 288.15 K): 0.00811; solubility (mole fraction) (in ethyl acetate, 293.15 K): 0.00959; solubility (mole fraction) (in ethyl acetate, 298.15 K): 0.011; solubility (mole fraction) (in ethyl acetate, 303.15 K): 0.0128; solubility (mole fraction) (in ethyl acetate, 308.15 K): 0.0146; solubility (mole fraction) (in ethyl acetate, 313.15 K): 0.0172; solubility (mole fraction) (in ethyl acetate, 318.15 K): 0.0197	O=C(O)c1cccc(Cl)c1C(=O)c1ccccc1
0.00323	0.00373	0.00412	0.00469	0.00547	0.00607	0.00691	0.00775	0.00896	0.00272	0.00308	0.00336	0.00388	0.00448	0.00531	0.00611	0.00692	0.00767	0.00335	0.00387	solubility (mole fraction) (in ethyl acetate, 283.15 K): 0.00459; solubility (mole fraction) (in ethyl acetate, 288.15 K): 0.00531; solubility (mole fraction) (in ethyl acetate, 293.15 K): 0.00605; solubility (mole fraction) (in ethyl acetate, 298.15 K): 0.0069; solubility (mole fraction) (in ethyl acetate, 303.15 K): 0.00795; solubility (mole fraction) (in ethyl acetate, 308.15 K): 0.00913; solubility (mole fraction) (in ethyl acetate, 313.15 K): 0.0106; solubility (mole fraction) (in toluene, 273.15 K): 0.00918; solubility (mole fraction) (in toluene, 278.15 K): 0.01; solubility (mole fraction) (in toluene, 283.15 K): 0.0112; solubility (mole fraction) (in toluene, 288.15 K): 0.0122; solubility (mole fraction) (in toluene, 293.15 K): 0.0132; solubility (mole fraction) (in toluene, 298.15 K): 0.0146; solubility (mole fraction) (in toluene, 303.15 K): 0.016; solubility (mole fraction) (in toluene, 308.15 K): 0.0175; solubility (mole fraction) (in toluene, 313.15 K): 0.019	O=C1c2ccccc2C(=O)c2c(Cl)cccc21

Reference: BigSolDB 2.1
